Values after ≈ are worked out from the molar mass of the structure shown. Where two headings read alike, the source gives them in different places. Values belong to the molecule of their own block, whether it stands above or below them.
Assays:
CCL17 = molecular target: T1, CCL17 (Homo sapiens, UniProt Q92583); assay: TRIC-r calcium assay, neutraligand protocol: compound preincubated with CCL17, EGFP-CCR4+Gqi5+ HEK cells; assay type: cell-based; conditions: for IC50: 5 nM CCL17 preincubated 1 h with compound, 21 °C, read-out: IC50 for CCL17 neutralization (calcium assay); for inhibition at 2 µg/mL: 2 μg/ml compound preincubated 1 h with 5 nM CCL17, read-out: inhibition of CCL17-induced calcium responses (primary screen)
T1 construct: codes for the mature CCL17 or CCL22 with an N-terminal thioredoxin-hexahistidin (TRX- (His)6) tag; thioredoxin (TRX) (N, cleaved yes); (His)6 (N, cleaved yes); made in house; host or cells: E. coli BL21 (DE3)
T1 sequence (Q92583 24-94): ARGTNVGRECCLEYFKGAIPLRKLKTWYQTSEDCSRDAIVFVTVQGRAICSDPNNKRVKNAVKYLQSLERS
Procedure: (§1) EGFP-CCR4^+Gqi5^+HEKcells were loaded with fluorescent Ca^2+-indicator Indo-1 AM (5μM, Interchim) for 45 min at 37 °C. […] Cells (100,000 cells/well, 100μl) were seeded in black clear bottom 96-well plates (Greiner), and centrifuged at 250 × g for 5 min.
(§2) Two plates (96-well plates, Greiner) were prepared for the screen: one containing test compounds alone in order to determine their direct agonistic activity, and another one containing test compounds mixed with CCL17 or CCL22 at room temperature for 1 h (neutraligand protocol). The chemokines and test compounds were prepared at a 3× concentration, while digitonin was prepared at a 4× concentration. The CCR4 antagonist, C-021 served as control in the experiment. In the antagonist protocol, compounds were added to the cell plate (one compound per well) and incubated with cells for 30 min at room temperature, while the agonist (CCL17 or CCL22) was added to the ligand plate only.
(§3) Dye loaded cells were placed in the FlexStation 3 (Molecular Devices). […] For the primary screening, the ligands (50μl of chemokine mixed with DMSO or test compounds) were added to the cells at 40 s, followed by digitonin addition (50μl) at 100 s to the cells. Molecules were screened at a final concentration of 2μg/ml with 5 nM CCL17 or CCL22. […] The calcium response values (height of peak response over baseline) were determined. Hits were selected by comparing the response amplitude at the time of the chemokine addition ± test compound. The Z’ factor[29] was calculated according to the following equation: Z’ = 1-(3SD+ + 3SD−)/|Ave+ − Ave−|, where SD+ and Ave+ are respectively the standard deviation and the mean value of the positive controls (chemokine + DMSO), while SD− and Ave− are respectively the standard deviation and the mean value of the negative controls (HEPES-BSA (0.1%) mixed with DMSO, or cells mixed with C-021). Hit molecules were confirmed by performing concentration-response curves and their half maximal inhibitory concentration (IC50) values were calculated using the Kaleidagraph software.

CCL22 = molecular target: T2, CCL22 (Homo sapiens, UniProt O00626); assay: TRIC-r calcium assay, neutraligand protocol: compound preincubated with CCL22, EGFP-CCR4+Gqi5+ HEK cells; assay type: cell-based; conditions: for IC50: 5 nM CCL22 preincubated 1 h with compound, 21 °C, read-out: IC50 for CCL22 neutralization (calcium assay); for inhibition at 2 µg/mL: 2 μg/ml compound preincubated 1 h with 5 nM CCL22, read-out: inhibition of CCL22-induced calcium responses (primary screen)
T2 construct: codes for the mature CCL17 or CCL22 with an N-terminal thioredoxin-hexahistidin (TRX- (His)6) tag; thioredoxin (TRX) (N, cleaved yes); (His)6 (N, cleaved yes); made in house; host or cells: E. coli BL21 (DE3)
T2 sequence (O00626 25-93): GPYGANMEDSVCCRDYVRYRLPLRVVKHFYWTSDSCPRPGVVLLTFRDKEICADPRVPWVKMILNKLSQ
Procedure: as §1, §2, §3

[1] = Solubility measurements (RP-HPLC); assay type: physicochemical; conditions: dissolved at 10 µM, room temperature; for solubility at 1 h: kinetic from dmso stock
Procedure: Standard stock solutions of compounds (10mM) were prepared in DMSO, and the molecules were dissolved at a concentration of 10µM in each of the three buffers. The samples were shaken for 1h at room temperature, and centrifuged at 15,000×g . The compounds concentration in the supernatant solutions was determined using RP-HPLC (Gilson) technique. The measurements were done with a UV detector set at 230nm. The measurements were carried out at room temperature using a C18 column ([…], 50×4.6mm, Phenomenex). The aqueous mobile phase contained 0.05% trifluoroacetic acid (solvent A, Sigma-Aldrich). The organic phase was HPLC grade acetonitrile (Sigma-Aldrich CHROMASOLV) (solvent B). The mobile phase flow rate was 2ml/min, and the following program was applied for the elution: 0–0.1min, 5% B; 0.1–2.6min, 5–95% B; 2.6–3.1min, 95% B; 3.1–3.3min, 95–5% B; and 3.3–6min, 5% B. To establish external calibration curves, increasing concentrations of each compound were prepared from standard stock solutions.
The chromatograms were recorded by injecting 20µl of each standard solution, and the calibration curves were plotted using peak areas. […]

HUT78 T cells = assay: WST-1 metabolic activity assay; assay type: cell-based, human; conditions: 30 μM, 72 h
Excerpt: WST-1 metabolic activity assay
The colorimetric WST-1 cell metabolic assay (Ozyme) was used to assess the cytotoxic effect of chemokine neutraligands. This is a cell viability test based on the enzymatic cleavage by the mitochondrial succinate-tetrazolium reductase of a tetrazolium salt, WST-1 (4-[3-(4-Iodophenyl)-2-(4-nitrophenyl)-2H-5-tetrazolio]-1,3 benzene disulfonate), into a water- […]
soluble formazan dye which can be detected by absorbance at 420-480nm. HUT78 T cells (or HaCat cells) were seeded on 24-well plates (200,000 cells per well) and were incubated […]
concentration ≤1% on cells). The background control was reserved as one well containing the culture medium only. The plates were incubated for 72h at 37°C. Three days later, the medium containing the neutraligands was removed, and WST-1 reagent (1:10 final dilution) (Ozyme) was added to each well for a 2h incubation at 37°C as the manufacturer’s recommendation. The plates were shaken and absorbance was measured at 450nm (reference wavelength 690nm) against the background control, using a multiwell plate reader (EnVision, Perkin Elmer). Assays were performed as three independent replicates. […]
(Heidelberg, Germany) and was cultured in Dulbecco’s Modified Eagle Medium (DMEM) (Invitrogen) supplemented with 10% fetal bovine serum (FBS) (Gibco-BRL), 100U/ml penicillin (Invitrogen), 100µg/ml streptomycin (Invitrogen) and 2mM L-glutamine (Invitrogen) at 37°C and 5% CO 2. The cells received fresh medium every other day and were subcultured every 10 days. HaCat cells were seeded in a 24-well plate (ESSEN Bioscience) at a density of 200,000 cells per well, and were allowed to grow until confluence. A scratch wound along the cell monolayer was created using the Essen woundmakerTM. Cells were washed twice with PBS to remove detached cells, and were treated with serum-free culture medium in the absence or presence of 100ng/ml chemokine (CCL22 or CCL17) preincubated with DMSO or […]
The molecules were also tested alone […]
without the chemokine. […] One […]
µg/ml of mitomycin C (Sigma-Aldrich) was added throughout the experiment in order to block cell proliferation. Once treated, the cells were immediately placed into the IncuCyteTM live-cell imaging, and the cell migration onto the wounded area was examined for 72h. Phase-contrast images acquired for each sample were captured every 2h (objective lens x10), and […]

[2] = molecular target: T3, EGFP-CCR4 on HEK cells (human) (UniProt P51679)
T3 sequence: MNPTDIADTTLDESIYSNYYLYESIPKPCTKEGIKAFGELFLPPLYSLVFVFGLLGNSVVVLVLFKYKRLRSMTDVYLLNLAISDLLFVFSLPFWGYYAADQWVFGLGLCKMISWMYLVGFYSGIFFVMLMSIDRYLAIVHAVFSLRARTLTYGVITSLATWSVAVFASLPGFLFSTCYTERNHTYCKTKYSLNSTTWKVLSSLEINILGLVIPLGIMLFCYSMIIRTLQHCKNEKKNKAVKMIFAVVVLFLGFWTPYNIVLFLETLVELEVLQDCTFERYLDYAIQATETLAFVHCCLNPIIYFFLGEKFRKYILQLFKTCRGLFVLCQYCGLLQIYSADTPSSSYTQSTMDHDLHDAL

[3] = HEK293, compound 5 µM, read-out: Inhibition of CCL17 calcium responses (%)
[4] = HEK293, compound 5 µM, read-out: Inhibition of CCL22 calcium responses (%)
[5] = HEPES buffer, aqueous buffer, read-out: solubility in HEPES buffer
[6] = complete cell culture medium, plasma or biological fluid, read-out: solubility in the cell culture medium

Molecule: Cn1c(=O)c2c(ncn2C)n(C)c1=O [Caffeine, reference compound]
- inhibition at 5 µM (CCL17; [3]): 0%
- Inhibition of CCL17 calcium responses (%) (CCL17; compound 5 µM): no effect
- inhibition at 5 µM (CCL22; [4]): 0%

Molecule: COc1ccc([C@@H](C)C(=O)c2ccc(O)cc2O)cc1 [GPN025, (R)-1-(2,4-dihydroxyphenyl)-2-(4-methoxyphenyl)propan-1-one]
- IC50 (CCL22): 10.6 ± 3.7 µM
- inhibition at 2 µg/mL (CCL22; HEK293): 44%
- solubility at 1 h [1, 5]: > 10 µM
- solubility at 1 h [1, 6]: > 10 µM
- inhibition of HUT78 cell metabolic activity (HUT78 T cells): 81.3%

Molecule: COc1cc(C2=N/C(=C\c3ccccc3)C(=O)O2)cc(OC)c1OC [GPN251, (Z)-4-benzylidene-2-(3,4,5-trimethoxyphenyl)oxazol-5(4H)-one]
- IC50 (CCL17): 0.9 ± 0.1 µM
- inhibition at 2 µg/mL (CCL17; HEK293): 53%
- solubility at 1 h [1, 5]: 0.7 µM (≈ 0.238 µg/mL)
- solubility in the cell culture medium ([1]; 1 h): not detected as a free molecule

Molecule: CN1C(=O)N(C)C2=NNC=NC2(O)C1=O (centres unmarked) [GPN355, 4a-hydroxy-6,8-dimethyl-6,8-dihydropyrimido[5,4-e][1,2, 4]triazine-5,7(2H, 4aH)-dione]
- IC50 (CCL17): 9.6 ± 0.9 µM
- inhibition at 2 µg/mL (CCL17; HEK293): 42%
- IC50 (CCL22): 0.2 µM
- inhibition at 2 µg/mL (CCL22; HEK293): 100%
- solubility at 1 h [1, 5]: > 10 µM
- solubility at 1 h [1, 6]: > 10 µM
- inhibition of HUT78 cell metabolic activity (HUT78 T cells): 23.1%

Molecule: Cn1c(=O)c2[nH]cnc2n(C)c1=O [Theophylline, reference compound]
- inhibition at 5 µM (CCL17; HEK293, read-out: Inhibition of CCL17 calcium responses (%)): 0%
- Inhibition of CCL17 calcium responses (%) (CCL17; compound 5 µM): no effect
- inhibition at 5 µM (CCL22; HEK293, read-out: Inhibition of CCL22 calcium responses (%)): 0%

More lines, now with the values ahead:

- Inhibition of CCL17 calcium responses (%) (CCL17; compound 5 µM): 0.0%
- Inhibition of CCL22 calcium responses (%) (CCL22; compound 5 µM, 5 µM): 0.0%
- Inhibition of CCL22 calcium responses (%) (CCL22; compound 5 µM, listed as GPN001207, 5 µM): no inhibitory effect
Molecule: O=C(O)c1ccccc1O [GPN0001207]

- inhibition at 5 µM (CCL17; [3]): 0%
- Inhibition of CCL17 calcium responses (%) (CCL17; compound 5 µM): no effect
- inhibition at 5 µM (CCL22; [4]): 0%
Molecule: CC(C)Cn1c(=O)n(C)c(=O)c2[nH]cnc21 [IBMX, 3-isobutyl-1-methyl xanthine, reference compound]

- inhibition at 5 µM (CCL17; [3]): 0%
- inhibition at 5 µM (CCL22; [4]): 0%
Molecule: CC(=O)Oc1ccccc1C(=O)O [aspirin, Acetylsalicylic acid, reference compound]

- EC50 of calcium responses in EGFP-CCR4+ Gqi5+ HEK cells at 21 °C [2]: 3.7 nM
Molecule: recombinant human CCL17 (from UniProt Q92583 24-94) (ligand)

- EC50 of calcium responses in EGFP-CCR4+ Gqi5+ HEK cells at 21 °C [2]: 2.9 nM
B1: recombinant human CCL22 (ligand)
chain: T2 sequence (O00626 25-93)

From article PMC4595804, “A strategy to discover decoy chemokine ligands with an anti-inflammatory activity” (Scientific Reports, 2015)
